Legend:
protein kinases = conditions: described in S. P. Davies et al.; cited from earlier work
[1] = system: androgen receptor (AR) activation by RhoA V14; experiment: ligand-dependent activation of the androgen receptor (AR) by RhoA V14, MMTV-LUC reporter in 293 cells; format: cell-based; conditions: RhoA V14 plasmid, with or without R 1881 10^-10 M, 5×10^−7 M Ro31-8220
From the text: In another preferred embodiment, the assay system comprises the reaction of the ligand-dependent activation of the androgen receptor (AR) by RhoA V 14. […] Reference is made, in this respect, to FIG. 2.

MCF-7 cells = experiment: androgen receptor agonist R 1881-induced cell proliferation in MCF-7 cells; format: cell-based; conditions: presence or absence of R1881, FIG. 3
Procedure: The inventors studied the cell proliferation inter alia in MCF-7 cells which is induced by the androgen receptor agonist R 1881 under the activating/promoting action of PRKs. MCF-7 cells were cultivated in RPMI 1640 supplemented with 2 g/l NaHCO3, L-Glu, Pen/Strep, 10% FCS (fetal calf serum), and insulin 1U/ml in the presence or absence of R1881 and Ro31-8220 at the indicated concentrations. The cell proliferation assay was performed according to the manufacture's instructions (Roche, #1647229).

Row | Structure (SMILES) | protein kinases acted on (specificity) (protein kinases) | agonist-dependent androgen receptor (AR) activation by RhoA V14 [1] | R 1881-induced cell proliferation (MCF-7 cells)
1 | C[C@@H](N)[C@H]1CC[C@H](C(=O)Nc2ccncc2)CC1 [Y 27632] | act on PRKs, but also on MSK1, ROCK-II and MAPKAP-K1b | – | –
2 | Cn1cc(C2=C(c3cn(CCCSC(=N)N)c4ccccc34)C(=O)NC2=O)c2ccccc21 [Ro31-8220] | act on PRKs, but also on MSK1, S6K1 and other protein kinases | abolished | inhibited
